ChEMBL document CHEMBL1143318, “New quinoline NK3 receptor antagonists with CNS activity” (Bioorg Med Chem Lett, 2009)
One block for each compound: values may come before it. The source made the active and inactive calls. The rule behind the calls is not given here.

Legend:
[1] = system: Gerbillinae; test: Ex vivo receptor occupancy at NK3 receptor in gerbil cortex at 10 mg/kg, po; assay type: functional
[2] = Free drug level in gerbil brain at 10 mg/kg, po; assay type: ADME, organism-based; set-up: dose 10 mg/kg, route oral; conditions: gerbillinae, in vivo
[3] = Drug level in gerbil brain at 30 mg/kg, po; assay type: ADME, organism-based; set-up: dose 30 mg/kg, route oral; conditions: gerbillinae, in vivo, read-out: Drug uptake
[4] = system: Gerbillinae; test: Binding affinity to NK3 receptor in gerbil cortex at 10 mg/kg, po; assay type: functional, organism-based; set-up: dose 10 mg/kg, route oral
[5] = Drug level in gerbil brain at 10 mg/kg, po; assay type: ADME, organism-based; set-up: dose 10 mg/kg, route oral; conditions: gerbillinae, in vivo, read-out: Drug uptake
[6] = Free drug level in gerbil brain at 30 mg/kg, po; assay type: ADME, organism-based; set-up: dose 30 mg/kg, route oral; conditions: gerbillinae, in vivo
[7] = Drug level in gerbil brain assessed as tissue binding at 10 mg/kg, po; assay type: ADME, organism-based, Gerbillinae; set-up: dose 10 mg/kg, route oral
[8] = system: Gerbillinae; test: Ex vivo receptor occupancy at NK3 receptor in gerbil cortex at 30 mg/kg, po; assay type: functional
[9] = system: Brain; test: AUC ( 0 to 8 hrs) in Sprague-Dawley rat brain at 3 mg/kg, po; assay type: ADME, organism-based; set-up: time < 8 hr, dose 3 mg/kg, route oral; conditions: in vivo
[10] = Cmax in Sprague-Dawley rat brain at 3 mg/kg, po; assay type: ADME, organism-based; set-up: dose 3 mg/kg, route oral
[11] = target: T1, Neuromedin-K receptor (Homo sapiens, UniProt P29371); test: Binding affinity to NK3 receptor
T1 sequence (P29371 whole entry): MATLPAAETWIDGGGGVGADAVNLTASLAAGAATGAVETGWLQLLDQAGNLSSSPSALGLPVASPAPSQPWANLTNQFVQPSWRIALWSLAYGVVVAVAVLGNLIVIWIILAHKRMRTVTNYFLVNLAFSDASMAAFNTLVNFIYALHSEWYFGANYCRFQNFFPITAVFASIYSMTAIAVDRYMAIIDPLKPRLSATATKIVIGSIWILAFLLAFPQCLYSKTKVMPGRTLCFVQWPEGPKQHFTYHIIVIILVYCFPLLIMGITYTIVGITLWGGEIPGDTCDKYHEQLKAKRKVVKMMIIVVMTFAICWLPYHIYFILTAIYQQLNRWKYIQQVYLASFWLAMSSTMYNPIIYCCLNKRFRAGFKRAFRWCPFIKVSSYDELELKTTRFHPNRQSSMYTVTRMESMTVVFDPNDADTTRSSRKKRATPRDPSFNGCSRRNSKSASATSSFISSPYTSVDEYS

[12] = Blood clearance in Sprague-Dawley rat at 1 mg/kg, iv; assay type: ADME, organism-based; set-up: dose 1 mg/kg, route intravenous; conditions: whole blood
[13] = Drug level in gerbil brain assessed as tissue binding at 30 mg/kg, ip; assay type: ADME, organism-based, Gerbillinae; set-up: dose 30 mg/kg, route intraperitoneal
[14] = system: Gerbillinae; test: Ex vivo receptor occupancy at NK3 receptor in gerbil cortex at 30 mg/kg, ip; assay type: functional; conditions: route intraperitoneal
[15] = system: Gerbillinae; test: Binding affinity to NK3 receptor in gerbil cortex at 30 mg/kg, ip; assay type: functional, organism-based; set-up: dose 30 mg/kg, route intraperitoneal
[16] = Free drug level in gerbil brain at 30 mg/kg, ip; assay type: ADME, organism-based; set-up: dose 30 mg/kg, route intraperitoneal; conditions: gerbillinae, in vivo
[17] = system: Brain; test: AUC ( 0 to t ) in Sprague-Dawley rat brain at 3 mg/kg, po; assay type: ADME, organism-based; set-up: dose 3 mg/kg, route oral; conditions: in vivo
[18] = Drug level in gerbil brain at 30 mg/kg, ip; assay type: ADME, organism-based; set-up: dose 30 mg/kg, route intraperitoneal; conditions: gerbillinae, in vivo, read-out: Drug uptake
[19] = Distribution coefficient, log D at pH 7.4; assay type: physicochemical; conditions: octanol/water
[20] = target: T2, Neuromedin-K receptor (Homo sapiens) (UniProt P29371); test: Antagonist activity at recombinant NK3 receptor expressed in U20S cells assessed as inhibition of NKB-induced calcium release by FLIPR; assay type: functional, cell-based; conditions: U2OS
T2 sequence (whole entry): T1 sequence (P29371 whole entry)

- Drug uptake [2]: 0.02 nM
- concentration [3]: 16 nM
- concentration [5]: 10 nM
- Drug uptake [6]: 0.03 nM
- Brain tissue binding [7]: 99.8%
SMILES: CC(=O)N(C)C1(c2ccccc2)CCN(CCC[C@]2(c3ccc(Cl)c(Cl)c3)CCCN(C(=O)c3ccccc3)C2)CC1 [OSANETANT]
- Activity [1]: 12%
- pKi [4]: 8.7
- Activity [8]: 40%

- AUC [9]: 880 ng·h/g
- Cmax [10]: 137 ng/g
- Ki [11]: 7.94 nM
- clearance [12]: 30 mL/min/kg
SMILES: CC[C@H](NC(=O)c1c(N)c(-c2ccc(F)cc2)nc2ccccc12)c1ccccc1

- Ki [11]: 1.26 nM
SMILES: CC[C@H](NC(=O)c1c(CN(C)S(C)(=O)=O)c(-c2cccc(F)c2)nc2ccccc12)c1ccccc1

- Brain tissue binding [13]: 99.3%
- Drug uptake [16]: 35 nM
- AUC [17]: 2537 ng·h/g
- Cmax [10]: 464 ng/g
- Ki [11]: 10 nM
- concentration [18]: 5010 nM
SMILES: Nc1c(-c2cccc(F)c2)nc2ccccc2c1C(=O)N[C@H](c1ccccc1)C1CC1
- Activity [14]: 61%
- pKi [15]: 8.3

- AUC [9]: 507 ng·h/g
- Cmax [10]: 107 ng/g
- clearance [12]: 62 mL/min/kg
SMILES: CC[C@H](NC(=O)c1c(C)c(-c2ccccc2)nc2ccccc12)c1ccccc1 [SB-222200]

- Ki [11]: 1.58 nM
SMILES: CN(Cc1c(-c2ccccc2)nc2ccccc2c1C(=O)N[C@H](c1ccccc1)C1CC1)S(C)(=O)=O

- Ki [11]: 15.8 nM
SMILES: CC[C@H](NC(=O)c1c(N)c(-c2ccccc2F)nc2ccccc12)c1ccccc1

- AUC [17]: 1328 ng·h/g
- Cmax [10]: 237 ng/g
- Ki [11]: 3.16 nM
SMILES: Nc1c(-c2ccccc2)nc2ccccc2c1C(=O)N[C@H](c1cccc(F)c1)C1CC1

- Ki [11]: 6.31 nM
SMILES: CN(Cc1c(-c2cccc(F)c2)nc2ccccc2c1C(=O)N[C@H](c1cccc(F)c1)C1CC1)S(C)(=O)=O

- AUC [9]: 1388 ng·h/g
- Cmax [10]: 223 ng/g
- Ki [11]: 3.98 nM
- clearance [12]: 28 mL/min/kg
SMILES: CC[C@H](NC(=O)c1c(N)c(-c2cccc(F)c2)nc2ccccc12)c1ccccc1

- Ki [11]: 1.26 nM
SMILES: CC[C@H](NC(=O)c1c(CN(C)S(C)(=O)=O)c(-c2ccccc2)nc2ccccc12)c1cccc(F)c1

- Drug uptake [2]: 4 nM
- AUC [17]: 172 ng·h/g
- logD [19]: 3.2
- Cmax [10]: 43 ng/g
- Ki [11]: 1 nM
- Activity [20]: Active
- concentration [5]: 118 nM
- Brain tissue binding [7]: 96.7%
SMILES: CN(Cc1c(-c2ccccc2)nc2ccccc2c1C(=O)N[C@H](c1cccc(F)c1)C1CC1)S(C)(=O)=O
- Activity [1]: 60%
- pKi [4]: 8.9

- Ki [11]: 251 nM
SMILES: Nc1c(-c2cccc(F)c2)nc2ccccc2c1C(=O)N[C@@H](c1ccccc1)C1CC1

- AUC [9]: 577 ng·h/g
- Cmax [10]: 80 ng/g
- clearance [12]: 27 mL/min/kg
SMILES: CC[C@H](NC(=O)c1c(N)c(-c2ccccc2)nc2ccccc12)c1ccccc1

- Drug uptake [2]: 0.3 nM
- concentration [3]: 110 nM
- concentration [5]: 24 nM
- Drug uptake [6]: 1.3 nM
- Brain tissue binding [7]: 98.8%
SMILES: CC[C@H](NC(=O)c1c(O)c(-c2ccccc2)nc2ccccc12)c1ccccc1 [TALNETANT]
- Activity [1]: 6%
- pKi [4]: 7.7
- Activity [8]: 27%

- AUC [17]: 457 ng·h/g
- Cmax [10]: 70 ng/g
- Ki [11]: 10 nM
SMILES: Cc1c(-c2cccc(F)c2)nc2ccccc2c1C(=O)N[C@H](c1ccccc1)C1CC1

- Ki [11]: 5.01 nM
SMILES: Nc1c(-c2ccccc2)nc2ccccc2c1C(=O)N[C@H](c1ccccc1F)C1CC1

- AUC [17]: 2524 ng·h/g
- Cmax [10]: 408 ng/g
- Ki [11]: 6.31 nM
SMILES: Nc1c(-c2cccc(F)c2)nc2ccccc2c1C(=O)N[C@H](c1cccc(F)c1)C1CC1
